# In ChEMBL document CHEMBL4651402, “Screening of ~5500 FDA-approved drugs and clinical candidates for anti-SARS-CoV-2 activity” (2021):
# System: SARS-CoV-2
# Assay: microbe, parasite or virus in culture
# Settings: Severe acute respiratory syndrome coronavirus 2, Vero C1008, 48 h
compound,measurement,setting,value
CN(C)CC/C=C1\c2ccccc2COc2ccccc21 [E-DOXEPIN],IC50,,> 20 µM
same,IC50,read-out: pIC50 (converted),> 20 µM
CC(C)(C)c1ccc(C(=O)CCCN2CCC(OC(c3ccccc3)c3ccccc3)CC2)cc1 [EBASTINE],IC50,,> 20 µM
same,IC50,read-out: pIC50 (converted),> 20 µM
O=c1c2ccccc2[se]n1-c1ccccc1 [EBSELEN],IC50,,> 20 µM
same,IC50,read-out: pIC50 (converted),> 20 µM
CNC(=O)c1cccc(NCC(=O)NCCc2ccc(OC)c(OC)c2)c1 [ECABAPIDE],IC50,,> 20 µM
same,IC50,read-out: pIC50 (converted),> 20 µM
Clc1ccc(COC(Cn2ccnc2)c2ccc(Cl)cc2Cl)cc1 (centres undefined) [ECONAZOLE],IC50,,> 20 µM
same,IC50,read-out: pIC50 (converted),> 20 µM
CN1CCc2cc(Cl)c(O)cc2[C@H]2c3ccccc3CC[C@@H]21 [ECOPIPAM],IC50,,> 20 µM
same,IC50,read-out: pIC50 (converted),> 20 µM
CC1=NN(c2ccccc2)C(=O)C1 [EDARAVONE],IC50,,> 20 µM
same,IC50,read-out: pIC50 (converted),> 20 µM
C[C@@H]1CN(Cc2ncccn2)C[C@H]1c1nc2c(cnn2C2CCOCC2)c(=O)[nH]1 [EDELINONTRINE],IC50,,> 20 µM
same,IC50,read-out: pIC50 (converted),> 20 µM
CC1(C)CC=C(c2nc(C3CC(C)(C)OC(C)(C)C3)ccc2NC(=O)c2nc(C#N)c[nH]2)CC1 [EDICOTINIB],IC50,,> 20 µM
same,IC50,read-out: pIC50 (converted),> 20 µM
CCc1cn([C@H]2C[C@H](O)[C@@H](CO)O2)c(=O)[nH]c1=O [EDOXUDINE],IC50,,> 100 µM
same,IC50,read-out: pIC50 (converted),> 100 µM
CC[N+](C)(C)c1cccc(O)c1 [EDROPHONIUM],IC50,,> 20 µM
same,IC50,read-out: pIC50 (converted),> 20 µM
CCC1(C2=NCCN2)Cc2ccccc2O1 (centres undefined) [EFAROXAN],IC50,,> 20 µM
same,IC50,read-out: pIC50 (converted),> 20 µM
NCCCC(N)(C(=O)O)C(F)F (centres undefined) [EFLORNITHINE],IC50,,> 20 µM
same,IC50,read-out: pIC50 (converted),> 20 µM
CCOC(=O)COc1ccc2c(=O)cc(-c3ccccc3)oc2c1 [EFLOXATE],IC50,,> 20 µM
same,IC50,read-out: pIC50 (converted),> 20 µM
CSc1ccc(C(=O)/C=C/c2cc(C)c(OC(C)(C)C(=O)O)c(C)c2)cc1 [ELAFIBRANOR],IC50,,> 20 µM
same,IC50,read-out: pIC50 (converted),> 20 µM
O=C(O)C[C@H](NC(=O)[C@@H]1CCCN(C(=O)CCC2CCNCC2)C1)c1cccnc1 [ELAROFIBAN],IC50,,> 20 µM
same,IC50,read-out: pIC50 (converted),> 20 µM
O=C(OC(C(F)(F)F)C(F)(F)F)N1CCN(Cc2ccc(C(F)(F)F)cc2N2CCCC2)CC1 [ELCUBRAGISTAT],IC50,,> 20 µM
same,IC50,read-out: pIC50 (converted),> 20 µM
CN(NC(=O)CC(=O)NN(C)C(=S)c1ccccc1)C(=S)c1ccccc1 [ELESCLOMOL],IC50,,> 20 µM
same,IC50,read-out: pIC50 (converted),> 20 µM
OC(CN1CCC(Cc2ccc(F)cc2)CC1)c1ccc(Cl)cc1 (centres undefined) [ELIPRODIL],IC50,,> 20 µM
same,IC50,read-out: pIC50 (converted),> 20 µM
Cc1c2ccncc2c(C)c2c1[nH]c1ccccc12 [ELLIPTECINE],IC50,,> 20 µM
same,IC50,read-out: pIC50 (converted),> 20 µM
CCCCC1(CCCC)CN(c2ccccc2)c2cc(SC)c(OCC(=O)N[C@@H](C(=O)NCC(=O)O)c3ccccc3)cc2S(=O)(=O)C1 [ELOBIXIBAT],IC50,,> 20 µM
same,IC50,read-out: pIC50 (converted),> 20 µM
c1cc2c(c(N3CCNCC3)c1)OCCO2 [ELTOPRAZINE],IC50,,> 20 µM
same,IC50,read-out: pIC50 (converted),> 20 µM
O=C(Nc1ccc(Cl)c(S(=O)(=O)N2CCNCC2)c1O)Nc1cccc(F)c1Cl [ELUBRIXIN],IC50,,> 20 µM
same,IC50,read-out: pIC50 (converted),> 20 µM
CCN(CC)CC(OC(=O)c1ccccc1)c1ccccc1 (centres undefined) [ELUCAINE],IC50,,> 20 µM
same,IC50,read-out: pIC50 (converted),> 20 µM
Nc1nc(=O)n([C@@H]2C=C[C@H](CO)O2)cc1F [ELVUCITABINE],IC50,,> 20 µM
same,IC50,read-out: pIC50 (converted),> 20 µM
CCCCCCCCCCCC1=C(O)C(=O)C=C(O)C1=O [EMBELIN],IC50,,> 20 µM
same,IC50,read-out: pIC50 (converted),> 20 µM
CCOCCn1c(N2CCCN(C)CC2)nc2ccccc21 [EMEDASTINE],IC50,,> 20 µM
same,IC50,read-out: pIC50 (converted),> 20 µM
CC[C@H]1CN2CCc3cc(OC)c(OC)cc3[C@@H]2C[C@@H]1C[C@H]1NCCc2cc(OC)c(OC)cc21 [EMETINE],IC50,,> 20 µM
same,IC50,read-out: pIC50 (converted),> 20 µM
CCOCn1c(Cc2ccccc2)c(C(C)C)c(=O)[nH]c1=O [EMIVIRINE],IC50,,> 20 µM
same,IC50,read-out: pIC50 (converted),> 20 µM
Cc1cc(O)c2c(c1)C(=O)c1cc(O)cc(O)c1C2=O [EMODIN],IC50,,> 20 µM
same,IC50,read-out: pIC50 (converted),> 20 µM
CCc1nc(C)ccc1O [EMOXYPINE],IC50,,> 20 µM
same,IC50,read-out: pIC50 (converted),> 20 µM
OC[C@H]1O[C@@H](c2ccc(Cl)c(Cc3ccc(O[C@H]4CCOC4)cc3)c2)[C@H](O)[C@@H](O)[C@@H]1O [EMPAGLIFLOZIN],IC50,,> 20 µM
same,IC50,read-out: pIC50 (converted),> 20 µM
Nc1nc(=O)n([C@@H]2CS[C@H](CO)O2)cc1F [EMTRICITABINE],IC50,,> 20 µM
same,IC50,read-out: pIC50 (converted),> 20 µM
C[C@H](N[C@@H](CCc1ccccc1)C(=O)O)C(=O)N1CCC[C@H]1C(=O)O [ENALAPRILAT ANHYDROUS],IC50,,> 20 µM
same,IC50,read-out: pIC50 (converted),> 20 µM
CC(C)(O)CNc1nc(Nc2ccnc(C(F)(F)F)c2)nc(-c2cccc(C(F)(F)F)n2)n1 [ENASIDENIB],IC50,,> 20 µM
same,IC50,read-out: pIC50 (converted),> 20 µM
COc1ccc(C(=O)Nc2ccccc2CCC2CCCCN2C)cc1 (centres undefined) [ENCAINIDE],IC50,,> 20 µM
same,IC50,read-out: pIC50 (converted),> 20 µM
COc1ccccc1N1CCN(CC(O)COc2cc(OC)c(OC)c(OC)c2)CC1 (centres undefined) [ENCIPRAZINE],IC50,,> 20 µM
same,IC50,read-out: pIC50 (converted),> 20 µM
CCOC(=O)N(Cc1ccccc1)C1CC1 [ENCYPRATE],IC50,,> 20 µM
same,IC50,read-out: pIC50 (converted),> 20 µM
O=C(O)c1ccccc1NCCc1ccccc1 [ENFENAMIC ACID],IC50,,> 20 µM
same,IC50,read-out: pIC50 (converted),> 20 µM
C=CCOC(Cn1ccnc1)c1ccc(Cl)cc1Cl (centres undefined) [ENILCONAZOLE],IC50,,> 20 µM
same,IC50,read-out: pIC50 (converted),> 20 µM
Cc1cc(Nc2cc(N3CCN(C)CC3)nc(/C=C/c3ccccc3)n2)n[nH]1 [ENMD-2076],IC50,,> 20 µM
same,IC50,read-out: pIC50 (converted),> 20 µM
O=C(Nc1ccc(Cl)c(Cl)c1)C1=C(O)c2cc(Cl)ccc2S(=O)(=O)CC1 [ENOLICAM],IC50,,> 20 µM
same,IC50,read-out: pIC50 (converted),> 20 µM
CCn1cc(C(=O)O)c(=O)c2cc(F)c(N3CCNCC3)nc21 [ENOXACIN],IC50,,> 20 µM
same,IC50,read-out: pIC50 (converted),> 20 µM
CSc1ccc(C(=O)c2[nH]c(=O)[nH]c2C)cc1 [ENOXIMONE],IC50,,> 20 µM
same,IC50,read-out: pIC50 (converted),> 20 µM
CCN1CCN(c2cc3c(cc2F)c(=O)c(C(=O)O)cn3C2CC2)CC1 [ENROFLOXACIN],IC50,,> 20 µM
same,IC50,read-out: pIC50 (converted),> 20 µM
O=S(=O)(O)c1ccc2[nH]c(-c3ccccc3)nc2c1 [ENSULIZOLE],IC50,,> 20 µM
same,IC50,read-out: pIC50 (converted),> 20 µM
CCN(CC)C(=O)/C(C#N)=C/c1cc(O)c(O)c([N+](=O)[O-])c1 [ENTACAPONE],IC50,,> 20 µM
same,IC50,read-out: pIC50 (converted),> 20 µM
Nc1ccccc1NC(=O)c1ccc(CNC(=O)OCc2cccnc2)cc1 [ENTINOSTAT],IC50,,> 20 µM
same,IC50,read-out: pIC50 (converted),> 20 µM
c1cn2cc(-c3ccc4cn[nH]c4c3)nc(Nc3ccc(N4CCOCC4)cc3)c2n1 [ENTOSPLETINIB],IC50,,> 20 µM
same,IC50,read-out: pIC50 (converted),> 20 µM
CNC(=O)c1ccc(N2C(=S)N(c3ccc(C#N)c(C(F)(F)F)c3)C(=O)C2(C)C)cc1F [ENZALUTAMIDE],IC50,,> 20 µM
same,IC50,read-out: pIC50 (converted),> 20 µM
Cn1cc(C2=C(c3cn(C4CCN(Cc5ccccn5)CC4)c4ccccc34)C(=O)NC2=O)c2ccccc21 [ENZASTAURIN],IC50,,> 20 µM
same,IC50,read-out: pIC50 (converted),> 20 µM
NS(=O)(=O)NCCNc1nonc1/C(=N/O)Nc1ccc(F)c(Br)c1 [EPACADOSTAT],IC50,,> 20 µM
same,IC50,read-out: pIC50 (converted),> 20 µM
CCc1ccc(C(=O)C(C)CN2CCCCC2)cc1 (centres undefined) [EPERISONE],IC50,,> 20 µM
same,IC50,read-out: pIC50 (converted),> 20 µM
CN[C@@H](C)[C@H](O)c1ccccc1 [EPHEDRINE],IC50,,> 20 µM
same,IC50,read-out: pIC50 (converted),> 20 µM
NC1=NCC2c3ccccc3Cc3ccccc3N12 (centres undefined) [EPINASTINE],IC50,,> 20 µM
same,IC50,read-out: pIC50 (converted),> 20 µM
COc1cc(C)nc(-n2nc(C)cc2OC)n1 [EPIRIZOLE],IC50,,> 20 µM
same,IC50,read-out: pIC50 (converted),> 20 µM
C[C@]12C[C@H]3S[C@H]3C[C@@H]1CC[C@@H]1[C@@H]2CC[C@]2(C)[C@@H](O)CC[C@@H]12 [EPITIOSTANOL],IC50,,> 20 µM
same,IC50,read-out: pIC50 (converted),> 20 µM
CN(C)CCO/N=C(/C=C/c1ccc(O)cc1)c1ccccc1F [EPLIVANSERIN],IC50,,> 20 µM
same,IC50,read-out: pIC50 (converted),> 20 µM
CC1(C)OC2(C)C(O)CC1CC2O (centres undefined) [EPOMEDIOL],IC50,,> 20 µM
same,IC50,read-out: pIC50 (converted),> 20 µM
CCCCC[C@H](O)/C=C/[C@@H]1[C@H]2C/C(=C/CCCC(=O)O)O[C@H]2C[C@H]1O [EPOPROSTENOL],IC50,,> 20 µM
same,IC50,read-out: pIC50 (converted),> 20 µM
C[C@]1(O)CC[C@H]2[C@@H]3CC[C@@]45O[C@]4(C)C(O)=C(C#N)C[C@]5(C)[C@H]3CC[C@@]21C [EPOSTANE],IC50,,> 20 µM
same,IC50,read-out: pIC50 (converted),> 20 µM
C/C1=C/C[C@@H](/C(C)=C/c2csc(C)n2)OC(=O)C[C@H](O)C(C)(C)C(=O)[C@H](C)[C@@H](O)[C@@H](C)CCC1 [EPOTHILONE D],IC50,,> 20 µM
same,IC50,read-out: pIC50 (converted),> 20 µM
